Values quoted from earlier work, collected in patent US7994258B2, “Hyperbranched polymer having nitroxyl group” (Nissan Chemical Industries, Ltd., priority 2007, dated 2011).

Settings: comparison value, measuring conditions not stated

Structure (SMILES): O=C([O-])CN(CCN(CC(=O)[O-])CC(=O)O)CCN(CC(=O)[O-])CC(=O)O.[Gd+3] [GdDTPA]
- relaxivity (r1) of comparator: 4.0 mM⁻¹ s⁻¹
